According to US6417384B1, “Radioiodinated phospholipid ether analogs and methods of using the same” (The Regents of the University of Michigan, priority 1999, dated 2002):

Tests used:
[1] = system: rats bearing Walker-256 tumor; test: Biodistribution studies with Walker-256 carcinosarcoma; assay type: in vivo, rat
Protocol: The three radiolabelled compounds illustrated in FIG. 5, including the improved C-18 analog 18-(p-iodophenyl)octadecyl phosphocholine (Compound XVI) described in Example 2, were prepared and administered to two sets of female Sprague Dawley rats (Charles River, Portage, Mich.). One normal set was used as a control, and one set was inoculated with Walker-256 carcinosarcoma cells (5×10^6 cells) in 0.2 ml saline in the right hindlimb. The Walker carcinoma cell line was provided by Dr. James Varani of the Department of Pathology at the University of Michigan, and is an accepted cell line representative of effect in humans. See, e.g. Tayck et al., “Influence of the Walker 256 Carcinosarcoma on Muscle, Tumor, and Whole-Body Protein Synthesis and Growth Rate in the Cancer-Bearing Rat, Cancer Res. 46:5649-54 (1986).
The animals were used 6-8 days later when the tumor weight averaged 10 g. The radiolabelled compounds were dissolved in absolute ethanol (50-500 μl) and Tween-20 (0.1 ml/mg of compound) was added to the solution. Ethanol was removed by evaporation under a stream of nitrogen. Physiological saline or sterile water was added, to give a 2-3% Tween-20 solution which was subsequently mixed by vortex. The solubilized radiolabelled compounds (5-10 μCi, 0.3 ml) were administered intravenously via the tail vein to tumor bearing rats, and the animals were sacrificed by exsanguination while under ether anesthesia at the various time points. Blood samples were collected through cardiac puncture and selected tissues (liver, kidney, etc.) were removed, trimmed, blotted to remove excess blood and weighed. Large organs were thoroughly minced with scissors to obtain random representative tissue samples.
For the biodistribution experiments with 12-(p-iodophenyl)dodecyl phosphocholine, weighed tissue samples were counted with a well scintillation counter (85% counting efficiency). The concentration of radioactivity in each tissue was expressed as a percentage of administered dose per gram of tissue.
Tissue distribution was assessed at various times following administration of the radioiodinated chain length isomers. The results are expressed as the mean % administered dose per gram±SEM (% Dose/g±SEM).

[2] = system: rats bearing Dunning (MATLyLu) prostate tumors; test: Biodistribution studies with Dunning prostate tumor; assay type: in vivo, rat; conditions: for mean % administered dose per gram, Adrenal / mean % administered dose per gram, Blood / mean % administered dose per gram, Kidney / mean % administered dose per gram, Liver / mean % administered dose per gram, Lung / mean % administered dose per gram, Plasma / mean % administered dose per gram, Tumor: i.v., Dunning MAT-LyLu prostate tumor-bearing rats, mean ± SEM
Protocol: The three radiolabelled compounds illustrated in FIGS. 7A-7C, including the improved C-18 analogs 18-(p-iodophenyl)octadecyl phosphocholine (Compound XVI—FIG. 7B) and 1-O-[18-(p-iodophenyl)octadecyl]-1,3-propanediol-3-phosphocholine (Compound XIV—FIG. 7C) described in Examples 2 and 3, respectively, were prepared and administered to two sets of male Copenhagen rats (Harlan Sprague-Dawley, Indianapolis, Ind.). One group of normal animals was used as a control, and another group was inoculated with Dunning prostate tumor cells (1×10^6 MAT-LyLu cells) in 0.2 ml saline in the right hindlimb. The MAT-LyLu subline of the Dunning (R-3327) adenocarcinoma prostate tumor was provided by Dr. Ken Pienta of the Department of Urology at the University of Michigan, and is an accepted cell line representative of effect in humans. See, e.g., Pienta et al., “Inhibition of Spontaneous Metastasis in a Rat Prostrate Cancer Model by Oral Administration of Modified Citrus Pectin, J. Natl. Cancer Inst. 87:348-53 (1995).
The animals were maintained with free access to food and water until day 8-10. The radioiodinated phospholipid ether analog formulated in 2% Tween 20—sterile water (5-10 μCi, 0.3-0.4 ml, described above in Example 6) was administered intravenously into the tail vein of the tumor-bearing animals under metofane anesthesia. The animals were euthanized at selected time points after injection (n=3 per time point) and samples of blood, plasma and a variety of tissues including tumor and prostate are collected and analyzed for radioiodine content. Biodistribution values are calculated as the mean of the individual % administered dose per gram of tissue and % dose per organ values.

[3] = female, Sprague Dawley, rat, in vivo, iv, 24 h
[4] = female, Sprague Dawley, rat, in vivo, iv, 48 h

C[N+](C)(C)CCOP(=O)([O-])OCCCCCCCCCCCCCCCc1ccc(I)cc1 [C-15 Analog, 15-(p-iodophenyl)pentadecyl phosphocholine]
mean % administered dose per gram, Adrenal ([1]; Adrenal, 24 hr, i.v., Walker-256 tumor-bearing rats, mean ± SEM): 0.73 ± 0.08 % Dose/g
mean % administered dose per gram, Adrenal ([1]; Adrenal, 48 hr, i.v., Walker-256 tumor-bearing rats, mean ± SEM): 0.49 ± 0.05 % Dose/g
mean % administered dose per gram, Blood ([1]; Blood, 24 hr, i.v., Walker-256 tumor-bearing rats, mean ± SEM): 0.16 ± 0.01 % Dose/g
mean % administered dose per gram, Blood ([1]; Blood, 48 hr, i.v., Walker-256 tumor-bearing rats, mean ± SEM): 0.14 ± 0.01 % Dose/g
blood levels ([1]; Blood, 120 hours, i.v., Walker-256 tumor-bearing rats, mean ± SEM): 0.07±0.01 % Dose/g
mean % administered dose per gram, Duodenum ([1]; Duodenum, 24 hr, i.v., Walker-256 tumor-bearing rats, mean ± SEM): 1.13 ± 0.13 % Dose/g
mean % administered dose per gram, Duodenum ([1]; Duodenum, 48 hr, i.v., Walker-256 tumor-bearing rats, mean ± SEM): 1.38 ± 0.24 % Dose/g
mean % administered dose per gram, Kidney ([1]; Kidney, 24 hr, i.v., Walker-256 tumor-bearing rats, mean ± SEM): 1.14 ± 0.11 % Dose/g
mean % administered dose per gram, Kidney ([1]; Kidney, 48 hr, i.v., Walker-256 tumor-bearing rats, mean ± SEM): 0.91 ± 0.04 % Dose/g
mean % administered dose per gram, Liver ([1]; Liver, 24 hr, i.v., Walker-256 tumor-bearing rats, mean ± SEM): 1.29 ± 0.10 % Dose/g
mean % administered dose per gram, Liver ([1]; Liver, 48 hr, i.v., Walker-256 tumor-bearing rats, mean ± SEM): 0.83 ± 0.04 % Dose/g
mean % administered dose per gram, Lung ([1]; Lung, 24 hr, i.v., Walker-256 tumor-bearing rats, mean ± SEM): 0.97 ± 0.03 % Dose/g
mean % administered dose per gram, Lung ([1]; Lung, 48 hr, i.v., Walker-256 tumor-bearing rats, mean ± SEM): 0.81 ± 0.04 % Dose/g
mean % administered dose per gram, Plasma ([1]; Plasma, 24 hr, i.v., Walker-256 tumor-bearing rats, mean ± SEM): 0.16 ± 0.01 % Dose/g
mean % administered dose per gram, Plasma ([1]; Plasma, 48 hr, i.v., Walker-256 tumor-bearing rats, mean ± SEM): 0.15 ± 0.03 % Dose/g
mean % administered dose per gram, Tumor ([1]; Tumor, 24 hr, i.v., Walker-256 tumor-bearing rats, mean ± SEM): 1.47 ± 0.10 % Dose/g
mean % administered dose per gram, Tumor ([1]; Tumor, 48 hr, i.v., Walker-256 tumor-bearing rats, mean ± SEM): 1.65 ± 0.23 % Dose/g

C[N+](C)(C)CCOP(=O)([O-])OCCCOCCCCCCCCCCCCCCCCCCc1ccc(I)cc1 [Compound XIV, 1-O-[18-(p-Iodophenyl)octadecyl]-1,3-propanediol-3-phosphocholine]
mean % administered dose per gram, Adrenal ([2]; 24 hr): 1.37 ± 0.03 % Dose/g
mean % administered dose per gram, Adrenal ([2]; 48 hr): 1.04 ± 0.07 % Dose/g
mean % administered dose per gram, Blood ([2]; 24 hr): 0.41 ± 0.01 % Dose/g
mean % administered dose per gram, Blood ([2]; 48 hr): 0.29 ± 0.01 % Dose/g
mean % administered dose per gram, Kidney ([2]; 24 hr): 0.73 ± 0.02 % Dose/g
mean % administered dose per gram, Kidney ([2]; 48 hr): 0.65 ± 0.01 % Dose/g
mean % administered dose per gram, Liver ([2]; 24 hr): 0.57 ± 0.02 % Dose/g
mean % administered dose per gram, Liver ([2]; 48 hr): 0.36 ± 0.01 % Dose/g
mean % administered dose per gram, Lung ([2]; 24 hr): 0.89 ± 0.07 % Dose/g
mean % administered dose per gram, Lung ([2]; 48 hr): 0.78 ± 0.02 % Dose/g
mean % administered dose per gram, Plasma ([2]; 24 hr): 0.58 ± 0.01 % Dose/g
mean % administered dose per gram, Plasma ([2]; 48 hr): 0.42 ± 0.03 % Dose/g
mean % administered dose per gram, Tumor ([2]; 24 hr): 0.43 ± 0.05 % Dose/g
mean % administered dose per gram, Tumor ([2]; 48 hr): 0.39 ± 0.01 % Dose/g

C[N+](C)(C)CCOP(=O)([O-])OCCCCCCCCCCCCCCCCCCc1ccc(I)cc1 [Compound XVI, 18-(p-iodophenyl)octadecyl phosphocholine]
mean % administered dose per gram, Adrenal ([2]; 24 hr): 0.88 ± 0.02 % Dose/g
mean % administered dose per gram, Adrenal ([2]; 48 hr): 0.76 ± 0.03 % Dose/g
mean % administered dose per gram, Blood ([2]; 24 hr): 0.88 ± 0.04 % Dose/g
mean % administered dose per gram, Blood ([2]; 48 hr): 0.64 ± 0.05 % Dose/g
mean % administered dose per gram, Kidney ([2]; 24 hr): 0.59 ± 0.02 % Dose/g
mean % administered dose per gram, Kidney ([2]; 48 hr): 0.51 ± 0.03 % Dose/g
mean % administered dose per gram, Liver ([2]; 24 hr): 0.57 ± 0.02 % Dose/g
mean % administered dose per gram, Liver ([2]; 48 hr): 0.40 ± 0.03 % Dose/g
mean % administered dose per gram, Lung ([2]; 24 hr): 0.84 ± 0.01 % Dose/g
mean % administered dose per gram, Lung ([2]; 48 hr): 0.69 ± 0.05 % Dose/g
mean % administered dose per gram, Plasma ([2]; 24 hr): 1.43 ± 0.06 % Dose/g
mean % administered dose per gram, Plasma ([2]; 48 hr): 0.99 ± 0.11 % Dose/g
mean % administered dose per gram, Tumor ([2]; 24 hr): 0.75 ± 0.04 % Dose/g
mean % administered dose per gram, Tumor ([2]; 48 hr): 0.81 ± 0.04 % Dose/g
tumor levels relative to the shorter chain analog ([2]; versus C-12 analog, Dunning prostate tumor model): more than twice as high
mean % administered dose per gram, Adrenal [1, 3]: 0.85 ± 0.04 % Dose/g
mean % administered dose per gram, Blood [1, 3]: 0.96 ± 0.00 % Dose/g
mean % administered dose per gram, Duodenum [1, 3]: 0.69 ± 0.05 % Dose/g
mean % administered dose per gram, Kidney [1, 3]: 0.65 ± 0.00 % Dose/g
mean % administered dose per gram, Liver [1, 3]: 0.55 ± 0.04 % Dose/g
mean % administered dose per gram, Lung [1, 3]: 0.88 ± 0.06 % Dose/g
mean % administered dose per gram, Plasma [1, 3]: 1.47 ± 0.03 % Dose/g
mean % administered dose per gram, Tumor [1, 3]: 0.98 ± 0.07 % Dose/g
mean % administered dose per gram, Adrenal [1, 4]: 0.92 ± 0.06 % Dose/g
mean % administered dose per gram, Blood [1, 4]: 0.64 ± 0.07 % Dose/g
mean % administered dose per gram, Duodenum [1, 4]: 0.68 ± 0.04 % Dose/g
mean % administered dose per gram, Kidney [1, 4]: 0.59 ± 0.04 % Dose/g
mean % administered dose per gram, Liver [1, 4]: 0.59 ± 0.05 % Dose/g
mean % administered dose per gram, Lung [1, 4]: 0.76 ± 0.07 % Dose/g
mean % administered dose per gram, Plasma [1, 4]: 0.95 ± 0.11 % Dose/g
mean % administered dose per gram, Tumor [1, 4]: 1.14 ± 0.01 % Dose/g
blood levels ([1]; female, Sprague Dawley, rat, in vivo, iv, 120 h): 0.60±0.01 % Dose/g
clearance from non-target tissues ([1]; rat, in vivo): much more rapid than from tumor
level in the tumor over a longer time period ([1]; rat, in vivo): increased significantly
retention in the circulation ([1]; rat, in vivo): retained in the circulation to a much greater extent than the other chain length isomers surveyed
